Assay results from patent publication US9999220B2, “Method for repelling rodents” (Arkion Life Sciences, LLC, priority 2014, dated 2018).

Columns and labels:
[1] = test system: Sprague-Dawley rats; assay: 13-week single-choice feeding study in Sprague-Dawley rats (rat repellency example); type: in vivo; conditions: for Body Weight Day 1: Day 1, mean ± SD; for Body Weight Week 3: Week 3, mean ± SD; for Body Weight Week 7: Week 7, mean ± SD; for Body Weight Week 13: Week 13, mean ± SD; for Total Weight Gain % difference from control / Total Weight Gain: over 13 weeks; for Total Weight Gain: mean ± SD
Protocol: Anthraquinone is not a classic toxicant but a feeding study on Sprague-Dawley rats was done to determine effects of long term feeding where there was a single choice offered to rats over a 13 week period.
Anthraquinones was administered to four groups of 10 male and 10 female Sprague-Dawley rats/group at concentrations of 0, 500, 2000, or 7500 ppm (0, 40, 125, or 495 mg/kg/day in males; 0, 44, 150, or 661 mg/kg/day in females) for 4 consecutive weeks. Beginning with Week 5, the 500 ppm diet was reduced to 200 ppm resulting in lowering the doses to 11 and 16 mg/kg/day for males and females, respectively, through the end of the 13-week experimental period.
Significant reduction in feeding with a single choice indicates a non-lethal repellency.

[2] = test system: black-tailed prairie dogs; assay: Concentration-response repellency experiment, treated whole corn, black-tailed prairie dogs; type: in vivo, Cynomys ludovicianus; conditions: black-tailed prairie dogs offered corn seeds treated with 0.5-4% anthraquinone (target concentrations), 1-day test
Source text: (§1) These values can also be used to form ranges, such as, for example, from about 15% to about 85% repellency, with preferred ranges for particular rodent families ranging from about 20-50%; 25-40%; 40-55%; and 55-85%. The percent repellency is based on the percentage of the treated item which is not consumed by the animal.
(§2) We conducted a concentration-response experiment with an anthraquinone-based repellent (Avipel®, a.i. 50% 9,10-anthraquinone; Arkion Life Sciences, New Castle, Del.) to determine anthraquinone repellency for black-tailed prairie dogs (Cynomys ludovicianus, N=44 males and females; Werner et al. 2011). During a 3-day pre-test, we offered one bowl (untreated whole corn) in individual cages at 08:00 h, daily. […] We randomly assigned repellent treatments among groups. During the 1-day test, we offered one bowl (repellent-treated whole corn) at 08:00 h. Consumption of treated corn seeds was measured (±0.1 g) at 08:00 h on the day subsequent to the test.
We observed 24-37% repellency (FIG. 1) during our concentration-response experiment with black-tailed prairie dogs offered corn seeds treated with 0.5-4% anthraquinone (target concentrations; Werner et al. 2011).

[3] = test system: deer mice; assay: Concentration-response repellency experiment, treated whole oats, deer mice; type: in vivo, Peromyscus maniculatus; conditions: deer mice offered oats treated with 0.25-2% anthraquinone (target concentrations), 1-day test
Protocol: During a 3-day pre-test, we offered one bowl (untreated whole oats) in individual cages at 08:00 h, daily. […] We randomly assigned repellent treatments among groups. During the 1-day test, we offered one bowl (repellent-treated whole oats) at 08:00 h. Consumption of treated oats was measured (±0.1 g) at 08:00 h on the day subsequent to the test.

[4] = test system: California voles; assay: Concentration-response repellency experiment, treated whole oats, California voles; type: in vivo, Microtus californicus; conditions: California voles offered oats treated with 0.5-2% anthraquinone (target concentrations), 1-day test
Source text: as §1
as §2, with “California (Microtus californicus, N=30” for “black-tailed prairie dogs (Cynomys ludovicianus, N=44”, “females).” for “females; Werner et al. 2011).”, “oats)” for “corn)”, “oats” for “corn seeds”
We observed 58-84% repellency (FIG. 2) during our concentration-response experiment with California voles offered oats treated with 0.5-2% anthraquinone (target concentrations).

[5] = test system: Richardson's ground squirrels; assay: Concentration-response repellency experiment, treated whole oats, Richardson's ground squirrels; type: in vivo, Urocitellus richardsonii; conditions: Richardson's ground squirrels offered oats treated with 0.5-2% anthraquinone (target concentrations), 1-day test
Source text: as §1
as §2, with “a.i.50%” for “a.i. 50%”, “Richardson's ground squirrels (Urocitellus richardsonii, N=28” for “black-tailed prairie dogs (Cynomys ludovicianus, N=44”, “females).” for “females; Werner et al. 2011).”, “oats)” for “corn)”, “oats” for “corn seeds”
We observed 40-56% repellency (FIG. 3) during our concentration-response experiment with Richardson's ground squirrels offered oats treated with 0.5-2% anthraquinone (target concentrations).

[6] = females, 500 ppm diet (200 ppm from Week 5)
[7] = males, 500 ppm diet (200 ppm from Week 5)

O=C1c2ccccc2C(=O)c2ccccc21 [anthraquinone, 9,10-anthraquinone]
repellency observed (lack of weight gain from inhibited feeding) ([1]; 500 ppm in diet, single choice, 13 weeks): some repellency was observed
Body Weight Day 1 [1, 6]: 185 ± 12.2 G
Body Weight Week 3 [1, 6]: 223 ± 12.4 G
Body Weight Week 7 [1, 6]: 254 ± 14.2 G
Body Weight Week 13 [1, 6]: 274 ± 15.0 G
Total Weight Gain % difference from control [1, 6]: −27%
Total Weight Gain [1, 6]: 89 ± 10.1 Grams
Body Weight Day 1 ([1]; females, 2000 ppm diet): 188 ± 14.6 G
Body Weight Week 3 ([1]; females, 2000 ppm diet): 212 ± 14.2 G
Body Weight Week 7 ([1]; females, 2000 ppm diet): 238 ± 11.7 G
Body Weight Week 13 ([1]; females, 2000 ppm diet): 247 ± 16.3 G
Total Weight Gain % difference from control ([1]; females, 2000 ppm diet): −51%
Total Weight Gain ([1]; females, 2000 ppm diet): 59 ± 9.2 Grams
Body Weight Day 1 ([1]; females, 7500 ppm diet): 189 ± 11.8 G
Body Weight Week 3 ([1]; females, 7500 ppm diet): 204 ± 22.0 G
Body Weight Week 7 ([1]; females, 7500 ppm diet): 226 ± 26.3 G
Body Weight Week 13 ([1]; females, 7500 ppm diet): 217 ± 27.7 G
Total Weight Gain % difference from control ([1]; females, 7500 ppm diet): −76%
Total Weight Gain ([1]; females, 7500 ppm diet): 29 ± 28.2 Grams
Body Weight Day 1 [1, 7]: 252 ± 14.5 G
Body Weight Week 3 [1, 7]: 379 ± 26.4 G
Body Weight Week 7 [1, 7]: 471 ± 39.4 G
Body Weight Week 13 [1, 7]: 528 ± 47.4 G
Total Weight Gain % difference from control [1, 7]: −11%
Total Weight Gain [1, 7]: 275 ± 38.7 Grams
Body Weight Day 1 ([1]; males, 2000 ppm diet): 250 ± 13.5 G
Body Weight Week 3 ([1]; males, 2000 ppm diet): 359 ± 23.7 G
Body Weight Week 7 ([1]; males, 2000 ppm diet): 443 ± 36.9 G
Body Weight Week 13 ([1]; males, 2000 ppm diet): 498 ± 43.0 G
Total Weight Gain % difference from control ([1]; males, 2000 ppm diet): −20%
Total Weight Gain ([1]; males, 2000 ppm diet): 247 ± 37.1 Grams
Body Weight Day 1 ([1]; males, 7500 ppm diet): 250 ± 10.1 G
Body Weight Week 3 ([1]; males, 7500 ppm diet): 342 ± 20.2 G
Body Weight Week 7 ([1]; males, 7500 ppm diet): 425 ± 28.7 G
Body Weight Week 13 ([1]; males, 7500 ppm diet): 470 ± 37.9 G
Total Weight Gain % difference from control ([1]; males, 7500 ppm diet): −28%
Total Weight Gain ([1]; males, 7500 ppm diet): 221 ± 34.0 Grams
dietary concentration at which effective repellency began ([1]; single choice diet, 13 weeks): approximately 2000 ppm
repellency [2]: 24-37%
repellency [3]: 19-52%
repellency [4]: 58-84%
repellency [5]: 40-56%
